Results from ChEMBL document CHEMBL1201862, “PubChem BioAssay data set” (2004).
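All cell lines were grown in 96-well plates and treated with compound for 48 hours. Here, GI50 denotes the concentration required for 50% inhibition of growth.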 Calls of active or inactive are those of the source. No stated cut-off is given here; in the data, active = GI50 up to about 1.1 µM and inactive = higher.

What was measured:
Experiment in all cases: growth of human tumour cells (NCI), 48 h
A498 = system: A498
COLO 205 = system: COLO 205
DMS-273 = system: DMS-273
KM-20L2 = system: KM-20L2
LOX IMVI = system: LOX IMVI
LXFL 529 = system: LXFL 529
MOLT-4 = system: MOLT-4
NCI-H23 = system: NCI-H23
NCI-H460 = system: NCI-H460
NCI-H522 = system: NCI-H522
OVCAR-3 = system: OVCAR-3
OVCAR-4 = system: OVCAR-4
OVCAR-8 = system: OVCAR-8
TK-10 = system: TK-10
UACC-62 = system: UACC-62
XF498 = system: XF498

Measured: GI50

Cc1cc(Cl)ccc1NC(=O)CCCC(=O)C1CCCC1=O (centres undefined)
inactive: A498 > 100 µM | COLO 205 > 100 µM | DMS-273 > 100 µM | KM-20L2 > 100 µM | LOX IMVI > 100 µM | LXFL 529 > 100 µM | MOLT-4 > 100 µM | NCI-H23 > 100 µM | NCI-H460 > 100 µM | NCI-H522 > 100 µM | OVCAR-3 > 100 µM | OVCAR-4 > 100 µM | OVCAR-8 > 100 µM | TK-10 > 100 µM | UACC-62 > 100 µM | XF498 > 100 µM

Cn1c(=O)oc2cc(C3CCC(=O)N3Cc3ccc(Cl)cc3)ccc21 (centres undefined)
inactive: COLO 205 > 100 µM | DMS-273 > 100 µM | KM-20L2 > 100 µM | LOX IMVI > 100 µM | LXFL 529 > 100 µM | MOLT-4 > 100 µM | NCI-H23 > 100 µM | NCI-H460 > 100 µM | NCI-H522 > 100 µM | OVCAR-4 > 100 µM | OVCAR-8 > 100 µM | TK-10 > 100 µM | UACC-62 > 100 µM | XF498 > 100 µM

COC1=C2CC(C)CC(OC)C(O)C(C)/C=C(\C)C(OC(N)=O)C(OC)/C=C\C=C(/C)C(=O)NC(=C(/C=N/N3CCCCC3)C1=O)C2=O (centres undefined)
inactive: A498 23.9 µM | COLO 205 2.93 µM | DMS-273 13.6 µM | KM-20L2 5 µM | LOX IMVI 8.55 µM | LXFL 529 10 µM | MOLT-4 2.62 µM | NCI-H23 15.8 µM | NCI-H460 19.5 µM | NCI-H522 2.55 µM | OVCAR-3 2.15 µM | OVCAR-4 5.26 µM | OVCAR-8 3.83 µM | TK-10 27.9 µM | UACC-62 18.6 µM | XF498 8.95 µM

Cc1cc(O)c(C(=O)CC2(O)C(=O)Nc3c(Cl)cc(Cl)cc32)c(=O)o1 (centres undefined)
inactive: A498 > 100 µM | COLO 205 > 100 µM | DMS-273 41.7 µM | KM-20L2 > 100 µM | LXFL 529 > 100 µM | MOLT-4 > 100 µM | NCI-H23 > 100 µM | NCI-H460 > 100 µM | NCI-H522 > 100 µM | OVCAR-3 > 100 µM | OVCAR-4 > 100 µM | OVCAR-8 > 100 µM | TK-10 > 100 µM | UACC-62 > 100 µM | XF498 > 100 µM

O=C(Nc1cccc(O)c1)C(=O)C1C(=O)NC(=S)NC1=O
inactive: A498 > 100 µM | COLO 205 > 100 µM | DMS-273 > 100 µM | KM-20L2 > 100 µM | LOX IMVI > 100 µM | LXFL 529 > 100 µM | MOLT-4 > 100 µM | NCI-H23 > 100 µM | NCI-H522 > 100 µM | OVCAR-3 > 100 µM | OVCAR-4 > 100 µM | OVCAR-8 > 100 µM | UACC-62 > 100 µM | XF498 > 100 µM

O=C(c1ccco1)c1ccccc1C(=O)c1ccco1
inactive: A498 > 100 µM | COLO 205 > 100 µM | DMS-273 > 100 µM | KM-20L2 > 100 µM | LOX IMVI > 100 µM | LXFL 529 > 100 µM | MOLT-4 > 100 µM | NCI-H23 > 100 µM | NCI-H460 > 100 µM | OVCAR-3 > 100 µM | OVCAR-4 > 100 µM | OVCAR-8 > 100 µM | TK-10 > 100 µM | UACC-62 > 100 µM | XF498 > 100 µM

Cc1ccc(C)c(NC(=O)C(=O)CC(=O)C2CCOC2=O)c1 (centres undefined)
inactive: A498 > 100 µM | COLO 205 > 100 µM | DMS-273 > 100 µM | KM-20L2 > 100 µM | LOX IMVI > 100 µM | LXFL 529 > 100 µM | NCI-H23 > 100 µM | NCI-H460 > 100 µM | NCI-H522 > 100 µM | OVCAR-3 > 100 µM | OVCAR-4 > 100 µM | OVCAR-8 > 100 µM | TK-10 > 100 µM | UACC-62 > 100 µM | XF498 > 100 µM

Cc1nc(O)nc2c1C(NCCCN(C)C)c1cc(Cl)ccc1N2 (centres undefined)
inactive: COLO 205 13.2 µM | DMS-273 12.7 µM | KM-20L2 12 µM | LOX IMVI 11.9 µM | LXFL 529 16.9 µM | MOLT-4 19.8 µM | NCI-H23 17.5 µM | NCI-H460 14.7 µM | NCI-H522 15.2 µM | OVCAR-3 17.4 µM | OVCAR-8 15.3 µM | TK-10 16.8 µM | UACC-62 13.4 µM | XF498 16.6 µM
